The values that follow come from patent US5306732A, “Tumor necrosis factor antagonist” (Xenova Limited, priority 1989, dated 1994).

The subject of data set [1] is TNF-receptor. As to the kind of experiment: TNF-receptor binding assay: binding of [125 I]-TNF to intact HL 60 cells. The following applies: [125 I]-TNF 700pM, 2 hours at room temperature. The method, then:
An in-vitro binding assay, based upon the measurement of binding of [^125 I]-TNF to intact cells, was used to measure the TNF/vinigrol interaction. The assay is similar to that of Imamura et al, J. Biol. Chem, 263, 10247-10253 (1988). More particularly, HL 60 cells (ATCC CCL 240) were grown in RPMI 1640 medium containing 10% foetal calf serum (FCS) and 1mM glutamine to a density of 1×10^6 /ml and harvested by centrifugation at 150g for 10 minutes. Cells were resuspended to a density of 2×10^7 /ml in RPMI 1640 containing 1% bovine serum albumin. [^125 I]-TNF was diluted to 2.1nM in the above buffer containing 0.6% sodium azide. Non-specific binding was estimated by measuring the binding in the presence of a 100 fold excess of unlabelled TNF. [^125 I]-TNF, final concentration 700pM, vinigrol at the stated concentration and cells at a density of 5×10^6 /ml were incubated in the above buffer for 2 hours at room temperature. The reaction was terminated by filtering onto a LKB filter mat (1205-401) followed by extensive washing with phosphate-buffered saline: The filter mat was counted for radioactivity to determine the quantity of bound [^125 I)-TNF.

The subject of data set [2] is L929 cells. The experiment in a line: cells. The following applies: Mus musculus, L929, read-out: Inhibition of TNF-induced cytotoxicity. Format: cell-based. Here is the method: (§1) TNF causes lysis at low concentrations in sensitive cell lines. A cell line, known to be sensitive to TNF, was challenged with the cytokine in the presence of vinigrol and the reduction in cell mortality (as measured by cell staining) quantified in a manner similar to the method of Matthews, Immunology, 48, 321 (1982). A measurement of the cytotoxicity of vinigrol at the various concentrations was also carried out. L929 cells (4×10^4 /well) were incubated in RPMI 1640 medium containing 10ng/ml TNF, 0.05% lactalbumin hydrolysate and 1μg/ml actinomycin D plus the stated concentration of vinigrol overnight at […]. Cells were washed, fixed with methanol, stained with crystal violet and the cell density quantified by measuring absorbance at 590nm. The cytotoxicity of the samples was determined using the above method but excluding the TNF, in which experiments cell death would be due to the added vinigrol.

Data set [3] can be described thus: in vitro. Format: cell-based. The following applies: mouse, l929 cells. The method, then:
as §1

A word on the inhibition: it is the percentage by which the read-out fell short of the control. As to `CC(C)C1CCC(C)C2CCC(C)C3(O)C1C=C(CO)C(O)C23` (stereo not drawn) [Vinigrol], the “Inhibition of [125 I]-TNF-binding” value in data set [1] (vinigrol 3.1 μM) stood at 8%. Moreover, the “Inhibition of [125 I]-TNF-binding” value in data set [1] (vinigrol 31 μM) turned out to be 12%. The “Inhibition of [125 I]-TNF-binding” value in data set [1] (vinigrol 310 μM) is on record as 100%. Also, in data set [2], the inhibition at 3.1 µM came out at 91%, the inhibition at 15.5 µM was determined as 100% and the inhibition at 77.5 µM was 100%. In data set [3], this compound registered a cytotoxicity at 3.1 µM of 30%, a cytotoxicity at 15.5 µM of 0% and a cytotoxicity at 77.5 µM of 7%.
